Data from patent US20070281046A1, “Method for removing organic contaminants from Chinese herb medicines” (Committee on Chinese Medicine and Pharmacy, Department of …, priority 2006, published 2007).
Marks after values point to notes of the source that are not given here.

Tests used:
[1] = Degradation of nine organochlorine pesticides by gamma irradiation in samples of P. quinquefolium (GC analysis); type: physicochemical; conditions: for remaining concentration of organochlorine pesticides in samples: P. quinquefolium samples, mean of three; for proportion of pesticide degraded: gamma irradiation of P. quinquefolium samples, dose not stated in the sentence (matches 25 kGy of Table 1)
Description: The nine organochlorine pesticides that included Aldrin, Lindane, Heptachlor, Endosulfan-1, Endosulfan-2, o,p′-DDD), p,p′-DDD, p,p′-DDE, and p,p′-DDT were simultaneously prepared in a n-hexane solution. Subsequently, the n-hexane solution that contained the aforesaid organochlorine pesticides was evenly sprayed into samples of P. quinquefolium; the concentration of each of the nine organochlorine pesticides contained in the samples was approximately 0.5 ppm. The samples were cut into pieces with scissors, and then divided into separate packs that weighed 10 g, respectively; the packs were subjected to gamma irradiation of different dosages ranging from 0, 5, 10, 15, 20, and 25 kGy, and followed by the analysis of concentration of the aforesaid organochlorine pesticides. […] Solution was extracted from the samples by using 70% aqueous acetone, and then the extracted solution was subjected to filtration, a decrease in pressure, and condensation in order to remove acetone, followed by the addition of hydrochloric acid and n-hexane to bring the extracted solution to 100 ml, so that the organochlorine pesticides were distributed to the organic layer. Consequently, magnesium silicate was added into the resulted solution in order to depigment and purify it, and once the solution has undergone a decrease in pressure and condensation again for drying, it was brought to 5 ml by adding n-hexane solution to prepare it for gas chromatography (GC) analysis. After undergoing centrifugation, 2 μl of the resulted solution was taken for GC analysis to find out the respective concentration of each of the aforesaid organochlorine pesticides remaining in the samples after receiving various dosages of gamma irradiation.

[2] = Concentration of marker components (ginsenosides) in P. quinquefolium samples after gamma irradiation (HPLC); type: physicochemical; conditions: for concentration of marker components of P. quinquefolium (ginsenoside): mean ± SD, three repeats; for effect of gamma irradiation on concentration of marker components: 10 kGy and 15 kGy gamma irradiation, P. quinquefolium samples
Experimental: Samples of P. quinquefolium that have respectively received gamma irradiation in dosages of 0, 10, 15, and 20 kGy were analyzed to find out the concentration of marker components therein, with the samples that have not received gamma irradiation as the control group. To extract marker components from the samples for analysis, 10 g of the samples were taken and prepared in 50 ml of 70% aqueous methanol solution, and heated in a convection heater at 60° C. for 15 minutes, followed by centrifugation in order to obtain the extract solution. Subsequently, the residual of the samples were subjected to the above-mentioned procedure again, and the extracted solution from the two rounds of procedures were mixed together and filtered, followed by the addition of 70% aqueous methanol solution to bring the volume up to 100 ml; the resulted solution was then stored at −20° C. and analyzed within 3 days. Before carrying out the analysis of ingredients, an adequate amount of the resulted solution was underwent filtration through a 0.22 μm pore size membrane, and then 20 μl of the solution was injected into a high performance liquid chromatographer for analysis (HPLC, Waters model 2695) each time; the analyses were carried out in combination with UV light—Visible light sensor of Waters model 2487, and a silicon-based reverse phase C-18 column (Cosmosil 5C18-MS-II, 5 μm, 4.6×250 mm, Nacalai Tesque, Inc., Kyoto, Japan) was used for analyzing the marker components of P. quinquefolium in the solution. The marker components of P. quinquefolium tested in the experiment included ginsenoside Rb1, ginsenoside Rg1, ginsenoside Rc, ginsenoside Rd, and ginsenoside Re; the detection wavelength of UV light was 203 ηm. The solution of 15% aqueous phosphoric acid (H3PO4)—acetonitrile (CH3CN) (81:19 to 60:40) was used as the moving phase, and the moving phase was analyzed at 25° C. and 1.0 ml/min of flow velocity after being filtered with a 0.45 μm filtration membrane, so as to measure the concentration of the marker components in samples of P. quinquefolium that received various dosages of gamma irradiation.

[3] = 0 kGy gamma irradiation (control group)

| concentration of marker components of P. quinquefolium (ginsenoside) [2, 3] | effect of gamma irradiation on concentration of marker components [2] | concentration of marker components of P. quinquefolium (ginsenoside) ([2]; 10 kGy gamma irradiation) [mg/g] | concentration of marker components of P. quinquefolium (ginsenoside) ([2]; 15 kGy gamma irradiation) [mg/g] | concentration of marker components of P. quinquefolium (ginsenoside) ([2]; 20 kGy gamma irradiation) [mg/g] | Structure (SMILES) | remaining concentration of organochlorine pesticides in samples [1, 3] | remaining concentration of organochlorine pesticides in samples ([1]; 5 kGy gamma irradiation) [ppm] | remaining concentration of organochlorine pesticides in samples ([1]; 10 kGy gamma irradiation) [ppm] | remaining concentration of organochlorine pesticides in samples ([1]; 15 kGy gamma irradiation) [ppm] | remaining concentration of organochlorine pesticides in samples ([1]; 20 kGy gamma irradiation) [ppm] | remaining concentration of organochlorine pesticides in samples ([1]; 25 kGy gamma irradiation) [ppm] | proportion of pesticide degraded [1] [%] |
| --- | --- | --- | --- | --- | --- | --- | --- | --- | --- | --- | --- | --- |
|  |  |  |  |  | ClC1=C(Cl)C2(Cl)C3C(Cl)C=CC3C1(Cl)C2(Cl)Cl (stereo not drawn) [Heptachlor] | 0.532 ppm | 0.421 | 0.319 | 0.254 | 0.195 | 0.142 |  |
|  |  |  |  |  | O=S1OC[C@@H]2[C@H](CO1)[C@]1(Cl)C(Cl)=C(Cl)[C@]2(Cl)C1(Cl)Cl (stereo partly drawn) [Endosulfan-2] | 0.515 ppm | 0.359 | 0.263 | 0.198 | 0.144 | 0.093 |  |
|  |  |  |  |  | Clc1ccc(C(c2ccc(Cl)cc2)C(Cl)Cl)cc1 [p,p′-DDD] | 0.502 ppm | 0.370 | 0.282 | 0.227 | 0.179 | 0.147 |  |
|  |  |  |  |  | ClC1=C(Cl)C2(Cl)C3C4C=CC(C4)C3C1(Cl)C2(Cl)Cl (stereo not drawn) [Aldrin] | 0.532^a) ppm | 0.376 | 0.279 | 0.218 | 0.168 | 0.123 |  |
|  |  |  |  |  | Clc1ccc(C(c2ccccc2Cl)C(Cl)Cl)cc1 (stereo not drawn) [o,p′-DDD] | 0.476 ppm | 0.337 | 0.250 | 0.196 | 0.155 | 0.119 |  |
| 1.56 ± 0.09 mg/g | would not affect | 1.56 ± 0.06 | 1.47 ± 0.03 | 1.43 ± 0.02 | CC(C)=CCC[C@](C)(O[C@@H]1O[C@H](CO)[C@@H](O)[C@H](O)[C@H]1O)[C@H]1CC[C@]2(C)[C@@H]1[C@H](O)C[C@@H]1[C@@]3(C)CC[C@H](O)C(C)(C)[C@@H]3[C@@H](O[C@@H]3O[C@H](CO)[C@@H](O)[C@H](O)[C@H]3O)C[C@]12C [Rg1, ginsenoside Rg1] |  |  |  |  |  |  |  |
|  |  |  |  |  | Cl[C@H]1[C@H](Cl)[C@@H](Cl)[C@@H](Cl)[C@H](Cl)[C@H]1Cl [Lindane] | 0.549 ppm | 0.383 | 0.278 | 0.206 | 0.147 | 0.089 | 84 |
| 15.98 ± 0.50 mg/g | would not affect | 15.79 ± 0.21 | 15.04 ± 0.33 | 14.53 ± 0.14 | CC(C)=CCC[C@](C)(O[C@@H]1O[C@H](CO)[C@@H](O)[C@H](O)[C@H]1O)[C@H]1CC[C@]2(C)[C@@H]1[C@H](O)C[C@@H]1[C@@]3(C)CC[C@H](O)C(C)(C)[C@@H]3[C@@H](O[C@@H]3O[C@H](CO)[C@@H](O)[C@H](O)[C@H]3O[C@@H]3O[C@@H](C)[C@H](O)[C@@H](O)[C@H]3O)C[C@]12C [Re, ginsenoside Re] |  |  |  |  |  |  |  |
| 31.37 ± 0.15^a) mg/g | would not affect | 31.01 ± 0.11 | 30.59 ± 0.63 | 29.39 ± 0.36 | CC(C)=CCC[C@](C)(O[C@@H]1O[C@H](CO[C@@H]2O[C@H](CO)[C@@H](O)[C@H](O)[C@H]2O)[C@@H](O)[C@H](O)[C@H]1O)[C@H]1CC[C@]2(C)[C@@H]1[C@H](O)C[C@@H]1[C@@]3(C)CC[C@H](O[C@@H]4O[C@H](CO)[C@@H](O)[C@H](O)[C@H]4O[C@@H]4O[C@H](CO)[C@@H](O)[C@H](O)[C@H]4O)C(C)(C)[C@@H]3CC[C@]12C [Rb1, ginsenoside Rb1] |  |  |  |  |  |  |  |
|  |  |  |  |  | ClC(Cl)=C(c1ccc(Cl)cc1)c1ccc(Cl)cc1 [p,p′-DDE] | 0.544 ppm | 0.404 | 0.313 | 0.249 | 0.195 | 0.145 |  |
| 16.12 ± 0.47 mg/g | would not affect | 15.91 ± 0.43 | 15.08 ± 0.27 | 14.46 ± 0.28 | CC(C)=CCC[C@](C)(O[C@@H]1O[C@H](CO[C@@H]2O[C@@H](CO)[C@H](O)[C@H]2O)[C@@H](O)[C@H](O)[C@H]1O)[C@H]1CC[C@]2(C)[C@@H]1[C@H](O)C[C@@H]1[C@@]3(C)CC[C@H](O[C@@H]4O[C@H](CO)[C@@H](O)[C@H](O)[C@H]4O[C@@H]4O[C@H](CO)[C@@H](O)[C@H](O)[C@H]4O)C(C)(C)[C@@H]3CC[C@]12C [Rc, ginsenoside Rc] |  |  |  |  |  |  |  |
| 9.02 ± 0.32 mg/g | would not affect | 8.77 ± 0.15 | 8.44 ± 0.25 | 8.20 ± 0.17 | CC(C)=CCC[C@](C)(O[C@@H]1O[C@H](CO)[C@@H](O)[C@H](O)[C@H]1O)[C@H]1CC[C@]2(C)[C@@H]1[C@H](O)C[C@@H]1[C@@]3(C)CC[C@H](O[C@@H]4O[C@H](CO)[C@@H](O)[C@H](O)[C@H]4O[C@@H]4O[C@H](CO)[C@@H](O)[C@H](O)[C@H]4O)C(C)(C)[C@@H]3CC[C@]12C [Rd, ginsenoside Rd] |  |  |  |  |  |  |  |
|  |  |  |  |  | O=S1OC[C@@H]2[C@H](CO1)[C@@]1(Cl)C(Cl)=C(Cl)[C@]2(Cl)C1(Cl)Cl (stereo partly drawn) [Endosulfan-1] | 0.519 ppm | 0.392 | 0.311 | 0.251 | 0.192 | 0.140 |  |
|  |  |  |  |  | Clc1ccc(C(c2ccc(Cl)cc2)C(Cl)(Cl)Cl)cc1 [p,p′-DDT] | 0.520 ppm | 0.344 | 0.242 | 0.178 | 0.127 | 0.082 | 84 |
